Test results taken from patent US8202998B2, “Salts of benzimidazolyl pyridyl ethers and formulations thereof” (Novartis AG, priority 2006, dated 2012).
In brackets after ≈: the same amount, converted by molar mass.

How the values were obtained:
[1] = Aqueous solubility of API as a function of pH (shake flask method); type: physicochemical; conditions: for solubility at 5 days: aqueous HCl or NaOH solution, ionic strength 0.15 (KCl), thermodynamic from solid, room temperature
Protocol: The aqueous solubility of the compound of Formula I was assessed as a function of pH. Solubility of the compound of Formula I was determined using the shake flask method. The following aqueous solutions of hydrochloric acid (HCl) were prepared: 100, 33.3, 11.1, 3.7, 1.2, 0.4, and 0 mM. The following aqueous solutions of sodium hydroxide (NaOH) were prepared: 1.2 and 0.4 mM. The ionic strength of each of these solutions was adjusted to 0.15 using potassium chloride. Excess amounts of the compound of Formula I were added to a 1 mL aliquot of each of the above solutions in 1.5-mL polypropylene tubes. The tubes were agitated at room temperature for 5 days before analysis. On the day of analysis, the tubes were centrifuged at 15,000 revolutions per minute (rpm) using a microcentrifuge at 22° C. for 20 minutes. The concentration of compound of Formula I in the supernatant was measured by HPLC. The pH of the supernatant was measured using an Orion pH meter, which was calibrated before use.

[2] = Stability: degradation products (DP) and appearance (color) under stress conditions; type: physicochemical; design: key to CL: A: No change of color; B: Slight discoloration; C: Medium discoloration; D: Strong discoloration; ↓: Suspension; *: Clear solution after stress test; —: no change; x: test not performed
Protocol: Column: Symmetry C18 (Waters), 3.5 μm, 3×150 mm
Mobile phase: A=0.1% TFA in water; B=acetonitrile
Gradient: 20 to 100% B in 10 minutes
Column temperature: 40° C.
Stability of the three salts with respect to color and degradation products were assessed under various conditions.

[3] = Determination of solubility at 25° C.; type: physicochemical; conditions: for solubility: thermodynamic from solid
Protocol: Excess solids were equilibrated in each solvent for over 24 hours at 25° C.±0.1. Concentration in aqueous supernatant was measured by UV and HPLC and concentrations in organic solvents by gravimetry.

[4] = Intrinsic dissolution rate; type: physicochemical; conditions: 37° C.
Protocol: The intrinsic dissolution rate measurements were carried out in 0.5 cm^2 VanKel die assemblies and a pellet pressure of 1 ton. The dissolution was measured using a Cary 50 spectrophotometer with a stirring rate of 200 rpm. The solution medium was held at 37° C. and measurements were made at 276 nm.

[5] = Hygroscopicity (sorption/desorption); type: physicochemical
Protocol: Sorption/desorption isotherms were measured using VTI vapor sorption device (DVS-1). Measurements were carried out at 25° C.

[6] = Polymorphism behavior: crystal modification after 24 hours equilibration; type: physicochemical
Protocol: A suspension of 6 mg of drug substance in 300 μl of solvent is prepared. Samples are agitated for ≧24 hour at 22° C.±2° C. The solids are collected and investigated for changes.

[7] = Bioavailability study of API and salts of API in dogs; type: in vivo, beagle dogs; conditions: single 100 mg oral dose
Protocol: For comparison, a microemulsion of the free base was also studied. The study was performed with 4 dogs, weighing 9-15 kg each. A crossover design with a washout period of at least 1 week was used. The dogs were given a single oral dose of 100 mg of test compound, administered under fasting conditions.

[8] = pH of 1% solution or suspension; type: physicochemical; conditions: In water
[9] = Thermogravimetry / loss on drying; type: physicochemical
[10] = Apparent pKa by pH profile solubility study; type: physicochemical; conditions: determined by a pH profile solubility study
From the text: The apparent pKa of the compound of Formula I refers to the apparent ionization constant of the compound of Formula I as determined by a pH profile solubility study. Thus, the apparent pKa of the compound of Formula I is a complex term consisting of three overlapping ionization constants of the basic nitrogens in Formula I.

[11] = Effect of grinding on morphic properties; type: physicochemical
[12] = Aqueous solubility of salts in deionized water
[13] = 0.1% solutions or suspensions, 1 week 80° C. or 50° C., Methanol
[14] = 0.1% solutions or suspensions, 1 week 80° C. or 50° C., Water
[15] = 0.1% solutions or suspensions, 1 week 80° C. or 50° C., pH 1
[16] = 0.1% solutions or suspensions, 1 week 80° C. or 50° C., pH 3
[17] = 0.1% solutions or suspensions, 1 week 80° C. or 50° C., pH 5
[18] = 0.1% solutions or suspensions, 1 week 80° C. or 50° C., pH 7
[19] = 0.1% solutions or suspensions, 1 week 80° C. or 50° C., pH 9
[20] = 0.1% solutions or suspensions, 1 week 80° C. or 50° C., pH 11
[21] = 1-2 weeks 50° C., tight container, 1% in mixture 1
[22] = 1-2 weeks 50° C., tight container, 1% in mixture 2
[23] = 1-2 weeks 50° C./75% r.h., 1% in mixture 1
[24] = 1-2 weeks 50° C./75% r.h., 1% in mixture 2
[25] = Solid stage, 1 week 80° C., tight container, Bulk (HPLC)
[26] = Xenon light (approx. 1200 kLuxh), Bulk (HPLC)
[27] = beagle, dog, plasma, fasting, mean and sd
[28] = deionized water, water, thermodynamic from solid

Aqueous solubility (in words) ([1]; Water): practically insoluble in water | solubility at 5 days ([1]; aqueous buffer, pH 2.19): 125 µg/mL (≈ 242 µM) | solubility at 5 days ([1]; aqueous buffer, pH 3.75): 1.9 µg/mL (≈ 3.66 µM) | solubility at 5 days ([1]; aqueous buffer, pH 5.78): 0.4 µg/mL (≈ 0.772 µM) | solubility at 5 days ([1]; aqueous buffer, pH 10.13): 0.3 µg/mL (≈ 0.579 µM) | solubility at 5 days ([1]; aqueous buffer, pH 11.00): 0.3 µg/mL (≈ 0.579 µM) | solubility at 5 days ([1]; simulated gastric fluid, pH 1.36): 709 µg/mL (≈ 1370 µM) | CL [2, 13]: A | DP [2, 13]: 0.6% | CL [2, 14]: A↓ | DP [2, 14]: 0.6% | CL [2, 15]: A | DP [2, 15]: 1.4% | CL [2, 16]: A↓ | DP [2, 16]: 0.9% | CL [2, 17]: A↓ | DP [2, 17]: 0.6% | CL [2, 18]: A↓ | DP [2, 18]: 0.9% | CL [2, 19]: A↓ | DP [2, 19]: 27.0% | CL [2, 20]: A↓ | DP [2, 20]: >99% | CL [2, 21]: A | DP [2, 21]: 0.7% | CL [2, 22]: A | DP [2, 22]: 0.6% | CL [2, 23]: A | DP [2, 23]: 0.8% | CL [2, 24]: A | DP [2, 24]: 0.5% | Stability in methanol (in words) ([2]; In methanol): stable | CL [2, 25]: A | DP [2, 25]: 0.6% | DP ([2]; Solid state, 1 week 80° C./175% r.h, Bulk (HPLC)): 0.6% | CL ([2]; Solid state, 1 week 80° C./, Bulk (HPLC)): A | DP ([2]; Unstressed): 0.6% | CL [2, 26]: A | DP [2, 26]: 0.6% | optimum pH for aqueous stability ([2]; aqueous): 5 | Aqueous stability at higher pH (in words) ([2]; higher pH (9 and 11)): decomposes | solubility ([3]; 0.1N HCl, 25 °C, simulated gastric fluid, read-out: Solubility (approx. at 25° C.) (HPLC)): 200 µg/mL (≈ 386 µM) | solubility ([3]; acetonitrile, 25 °C, organic solvent or mixture, read-out: Solubility (approx. at 25° C.)): 5200 µg/mL (≈ 10000 µM) | solubility ([3]; aqueous medium at pH 3, 25 °C, pH 3, aqueous buffer, read-out: Solubility (approx. at 25° C.) (HPLC)): 0.06 µg/mL (≈ 0.116 µM) | solubility ([3]; aqueous medium at pH 4.5, 25 °C, pH 4.5, aqueous buffer, read-out: Solubility (approx. at 25° C.) (HPLC)): 0.09 µg/mL (≈ 0.174 µM) | Solid ([3]; line after Water under Solubility): No change | solubility ([3]; methanol, 25 °C, organic solvent or mixture, read-out: Solubility (approx. at 25° C.)): 11400 µg/mL (≈ 22000 µM) | Aqueous solubility (in words) ([3]; summary of Table 8): nearly insoluble in water | solubility ([3]; water, 25 °C, water, read-out: Solubility (approx. at 25° C.) (HPLC)): 24 µg/mL (≈ 46.3 µM) | Intrinsic dissolution rate ([4]; HCl 0.1N): 0 mg min^−1 cm^−2 | Intrinsic dissolution rate ([4]; Water): 0 mg min^−1 cm^−2 | Hygroscopicity from moisture sorption profiles (in words) [5]: non-hygroscopic | Hygroscopicity: After 1 day at 80% r.h. ([5]; 80% r.h., 1 day, 25° C.): 0 | Hygroscopicity: After 1 day at 95% r.h. ([5]; 95% r.h., 1 day, 25° C.): 0.1 | Crystal modification after 24 hours equilibration (DSC/XRPD/TG) ([6]; 2-propanol): No change | Crystal modification after 24 hours equilibration (DSC/XRPD/TG) ([6]; Acetone): No change | Crystal modification after 24 hours equilibration (DSC/XRPD/TG) ([6]; Acetonitrile): Change | Crystal modification after 24 hours equilibration (DSC/XRPD/TG) ([6]; Ethanol): No change | Crystal modification after 24 hours equilibration (DSC/XRPD/TG) ([6]; Ethyl acetate): No change | Crystal modification after 24 hours equilibration (DSC/XRPD/TG) ([6]; Methanol): No change | Crystal modification after 24 hours equilibration (DSC/XRPD/TG) ([6]; PEG400): No change | Crystal modification after 24 hours equilibration (DSC/XRPD/TG) ([6]; Water): Change | AUC(0-inf) [7, 27]: 5310 ± 4510 ng·h/mL | Cmax [7, 27]: 62.9 ± 74.4 ng/mL | Tmax ([7]; beagle, dog, plasma, fasting, median): 16 h | Tlag ([7]; fasting, median): 1.0 h | Absolute F ([7]; relative to an iv dose of 1.25 mg/kg): 2.32 ± 1.97 | pH of 1% solution or suspension [8]: 5.5 | Loss on drying by TG ([9]; As is): 3.3% | Thermogravimetry (weight loss in %) ([9]; Heating rate 20 K/min): 3.3% | pKa [10]: ~4.7 | Effect of grinding [11]: No change | solubility [12, 28]: 9 µg/mL | solubility at 48 h [12, 28]: 4 µg/mL | pH ([12]; pH of the saturated aqueous solutions): 5.235
SMILES: Cn1c(Nc2ccc(C(F)(F)F)cc2)nc2cc(Oc3ccnc(-c4ncc(C(F)(F)F)[nH]4)c3)ccc21 [API, {1-methyl-5-[2-(5-trifluoromethyl-1H-imidazol-2-yl)-pyridin-4-yloxy]-1H-benzoimidazol-2-yl}-(4-trifluoromethyl-phenyl)amine]
